Reference: patent US10046022B2, “Synthetic peptide that increases radiosensitivity of tumor cells and use of same” (TOAGOSEI CO., LTD., priority 2015, dated 2018)
Peptide text beside a SMILES is read from it.

System: HeLaS3 cells
Assay: Radiosensitizing activity: cell survival rate (Cell Counting Kit-8, WST-8) of HeLaS3 cells after peptide and X-ray irradiation
Assay type: cell-based, human
Conditions: peptide 50 μM, X-ray dose 0 Gy, compared with 0 μM peptide
Description: Radiosensitizing activity of the radiosensitizing synthetic peptide (Sample 1) obtained in Example 1 was evaluated by measuring cell survival rates during culturing after having irradiated test cells supplied with the radiosensitizing synthetic peptide with radiation (here, X-rays).
Human carcinoma-derived cells (HeLaS3 cells) and cells derived from normal human tissue (CCD-1079Sk cells) were used for the test cells. […] Details of the evaluation test are as indicated below.
First, a cultured cell line derived from human cervical cancer in the form of HeLaS3 cells (ATCC™ CCL2.2) were prepared for use as test cells derived from a human tumor. […]
Next, at the point 48 hours had elapsed following X-ray irradiation, the viability of the test cells (the number of viable cells) was measured using a commercially available chromogenic assay kit (Cell Counting Kit-8, Dojindo Molecular Technologies, Inc.). Namely, the number of viable cells was measured by colorimetry by quantifying the amount of water-soluble formazan in the medium by measuring using absorption spectrophotometry (measuring wavelength: 450 nm, reference wavelength: 650 nm) based on the principle that the tetrazolium salt in the reagent is reduced by enzyme activity of viable cells resulting in the formation of water-soluble formazan. […]

N=C(N)NCCC[C@H](NC(=O)[C@H](CCCNC(=N)N)NC(=O)[C@H](CO)NC(=O)[C@H](CCCCN)NC(=O)[C@H](CO)NC(=O)[C@H](CCCCN)NC(=O)[C@@H](N)CS)C(=O)N[C@@H](CO)C(=O)N[C@@H](CS)C(=O)O [Sample 1, CKSKSRRSC] (H-CKSKSRRSC-OH)
cell survivability, Test Group 1 in comparison with Test Group 2 (cytotoxicity attributable to the peptide): slightly lower
